Measurements: patent publication US20230416275A1, “MODULATORS OF CYSTIC FIBROSIS TRANSMEMBRANE CONDUCTANCE REGULATOR” (VERTEX PHARMACEUTICALS INCORPORATED, priority 2020, published 2023)

Molecular target: T1, F508del in NIH 3T3 cells (Homo sapiens, UniProt P13569, DEL508-508)
T1 construct: expressed in transfected cells
Experiment: 3T3 assay: membrane potential optical assay for F508del correction
Assay type: cell-based, mouse
Settings: for EC50: F508del NIH 3T3 cells, compound incubation 18-24 hours at 37° C., forskolin activation, read-out: 3T3 EC50; for Emax: NIH3T3, F508del NIH 3T3 cells, efficacy compared to lumacaftor in combination with acutely added 300 nM Ivacaftor, read-out: 3T3 Max Activity (%)
Text: a. Membrane Potential Optical Methods for Assaying F508del Modulation Properties of Compounds
The assay utilizes fluorescent voltage sensing dyes to measure changes in membrane potential using a fluorescent plate reader (e.g., FLIPR III, Molecular Devices, Inc.) as a readout for increase in functional F508del in NIH 3T3 cells. The driving force for the response is the creation of a chloride ion gradient in conjunction with channel activation by a single liquid addition step after the cells have previously been treated with compounds and subsequently loaded with a voltage sensing dye.
b. Identification of Corrector Compounds
To identify correctors of F508del, a single-addition HTS assay format was developed. This HTS assay utilizes fluorescent voltage sensing dyes to measure changes in membrane potential on the FLIPR III as a measurement for increase in gating (conductance) of F508del in F508del NIH 3T3 cells. The F508del NIH 3T3 cell cultures were incubated with the corrector compounds at a range of concentrations for 18-24 hours at 37° C., and subsequently loaded with a redistribution dye. The driving force for the response is a Cl^− ion gradient in conjunction with channel activation with forskolin in a single liquid addition step using a fluorescent plate reader such as FLIPR III.
Bath Solution #1: (in mM) NaCl 160, KCl 4.5, CaCl2 2, MgCl2 1, HEPES 10, pH 7.4 with NaOH.
Chloride-free bath solution: Chloride salts in Bath Solution #1 (above) are substituted with gluconate salts.
NIH3T3 mouse fibroblasts stably expressing F508del are used for optical measurements of membrane potential. The cells are maintained at 37° C. in 5% CO2 and 90% humidity in Dulbecco's modified Eagle's medium supplemented with 2 mM glutamine, 10% fetal bovine serum, 1×NEAA, b-ME, 1× pen/strep, and 25 mM HEPES in 175 cm^2 culture flasks. For all optical assays, the cells were seeded at ˜20,000/well in 384-well Matrigel-coated plates. For the correction assays, the cells are cultured at 37° C. with and without compounds for 16-24 hours.

T1 sequence (P13569 with tags, fused parts or gaps DEL508-508): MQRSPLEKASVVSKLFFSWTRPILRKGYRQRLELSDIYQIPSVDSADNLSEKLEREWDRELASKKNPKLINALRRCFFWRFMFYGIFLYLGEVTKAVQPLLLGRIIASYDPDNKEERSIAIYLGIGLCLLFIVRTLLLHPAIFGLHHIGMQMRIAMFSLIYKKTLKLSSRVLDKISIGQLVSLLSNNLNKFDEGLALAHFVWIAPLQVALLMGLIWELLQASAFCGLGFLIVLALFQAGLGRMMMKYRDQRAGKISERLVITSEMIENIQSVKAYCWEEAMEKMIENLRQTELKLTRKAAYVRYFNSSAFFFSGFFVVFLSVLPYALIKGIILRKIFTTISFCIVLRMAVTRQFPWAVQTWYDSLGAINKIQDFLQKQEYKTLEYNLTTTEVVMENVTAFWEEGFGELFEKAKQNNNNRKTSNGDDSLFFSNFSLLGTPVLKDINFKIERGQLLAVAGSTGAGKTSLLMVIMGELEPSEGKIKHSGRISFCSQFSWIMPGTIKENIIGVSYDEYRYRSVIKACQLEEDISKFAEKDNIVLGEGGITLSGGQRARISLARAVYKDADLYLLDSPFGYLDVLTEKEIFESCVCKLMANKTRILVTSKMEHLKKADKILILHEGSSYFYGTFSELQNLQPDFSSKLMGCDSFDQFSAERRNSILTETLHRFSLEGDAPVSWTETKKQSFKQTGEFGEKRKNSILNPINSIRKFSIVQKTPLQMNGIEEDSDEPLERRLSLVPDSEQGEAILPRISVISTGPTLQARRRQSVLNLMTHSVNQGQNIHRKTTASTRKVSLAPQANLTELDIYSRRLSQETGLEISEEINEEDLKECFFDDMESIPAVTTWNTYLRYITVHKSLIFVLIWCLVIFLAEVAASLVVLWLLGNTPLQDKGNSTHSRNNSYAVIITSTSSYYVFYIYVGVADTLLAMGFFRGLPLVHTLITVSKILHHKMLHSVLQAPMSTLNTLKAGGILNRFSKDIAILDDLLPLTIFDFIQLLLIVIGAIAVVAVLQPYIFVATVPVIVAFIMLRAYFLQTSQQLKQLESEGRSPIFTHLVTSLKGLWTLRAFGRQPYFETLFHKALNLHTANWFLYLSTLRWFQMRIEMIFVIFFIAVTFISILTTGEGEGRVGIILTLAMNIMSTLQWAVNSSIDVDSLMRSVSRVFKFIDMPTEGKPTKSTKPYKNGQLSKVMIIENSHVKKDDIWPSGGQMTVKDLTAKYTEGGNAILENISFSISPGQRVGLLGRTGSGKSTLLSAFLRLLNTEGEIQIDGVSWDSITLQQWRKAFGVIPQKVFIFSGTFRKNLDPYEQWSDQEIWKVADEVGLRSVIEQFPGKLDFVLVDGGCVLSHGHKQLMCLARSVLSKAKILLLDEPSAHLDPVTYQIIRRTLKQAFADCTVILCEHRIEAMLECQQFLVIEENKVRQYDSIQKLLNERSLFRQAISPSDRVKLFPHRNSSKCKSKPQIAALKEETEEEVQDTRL

SMILES | EC50 [µM] | Emax [%]
Cc1cccc(C)c1-c1cc2nc(n1)NS(=O)(=O)c1cccc(c1)NC(=O)c1cccc(c1C)O2 (racemic) [Compound 59, 5-(2,6-Dimethylphenyl)-21-methyl-9,9-dioxo-2-oxa-9λ^6-thia-6,8,15,23-tetraazatetracyclo[15.3.1.13,7.110,14]tricosa-1(20),3,5,7(23),10(22),11,13,17(21),18-nonaen-16-one] | < 1 | > 60
Cc1cccc(C)c1-c1cc2nc(n1)NS(=O)(=O)c1cccc(c1)NC(=O)[C@H]1C[C@@H](CN(C(=O)OC(C)(C)C)C1)O2 (single isomer, unassigned) [Compound 4] | < 1 | > 60
Cc1cccc(C)c1-c1cc2nc(n1)NS(=O)(=O)c1cccc(c1)NC(=O)c1cccc(c1C)O2 (single isomer, unassigned) [Compound 60, (+)-5-(2,6-Dimethylphenyl)-21-methyl-9,9-dioxo-2-oxa-9λ^6-thia-6,8,15,23-tetraazatetracyclo[15.3.1.13,7.110,14]tricosa-1(20),3,5,7(23),10(22),11,13,17(21),18-nonaen-16-one] | < 1 | > 60
Cc1cccc(C)c1-c1cc2nc(n1)NS(=O)(=O)c1cccc(c1)NC(=O)c1cccc(c1C)O2 (single isomer, unassigned) [Compound 61, (−)-5-(2,6-dimethylphenyl)-21-methyl-9,9-dioxo-2-oxa-9λ^6-thia-6,8,15,23-tetraazatetracyclo[15.3.1.13,7.110,14]tricosa-1(20),3,5,7(23),10(22),11,13,17(21),18-nonaen-16-one] | < 1 | 
Cc1cccc(C)c1-c1cc2nc(n1)NS(=O)(=O)c1cccc(c1)NC(=O)c1cc(ccc1N1CCCCC1)O2 [Compound 56, 5-(2,6-Dimethylphenyl)-9,9-dioxo-18-(1-piperidyl)-2-oxa-9λ^6-thia-6,8,15,23-tetraazatetracyclo[15.3.1.13,7.110,14]tricosa-1(21),3,5,7(23),10(22),11,13,17,19-nonaen-16-one] | < 1 | > 60
Cc1cccc(C)c1-c1cc2nc(n1)NS(=O)(=O)c1cccc(c1)NC(=O)C(NC(=O)OC(C)(C)C)CCO2 (stereo not shown) [Compound 95] | < 1 | > 60
Cc1cccc(C)c1-c1cc2nc(n1)NS(=O)(=O)c1cccc(c1)NC(=O)C(N)CCO2 (stereo not shown) [Compound 96] | 1 to 3 | > 60
Cc1cccc(C)c1-c1cc2nc(n1)NS(=O)(=O)c1cccc(c1)NC(=O)CCCCCO2 [Compound 97] | < 1 | > 60
Cc1cccc(C)c1-c1cc2nc(n1)NS(=O)(=O)c1cccc(c1)NC(=O)C1CC(CN1C(=O)OC(C)(C)C)O2 (stereo not shown) [Compound 98] | 1 to 3 | > 60
Cc1cccc(C)c1-c1cc2nc(n1)NS(=O)(=O)c1cccc(c1)NC(=O)c1cc(cc(N3CCNCC3)c1)O2 [Compound 99] | 3 to 30 | 30 to 60
Cc1cccc(C)c1-c1cc2nc(n1)NS(=O)(=O)c1cccc(c1)NC(=O)c1cc(ccc1N1CCC(O)CC1)O2 [Compound 100] | 3 to 30 | > 60
Cc1cccc(C)c1-c1cc2nc(n1)NS(=O)(=O)c1cccc(c1)NC(=O)c1cc(ccc1NC1CCCC(N)C1)O2 (stereo not shown) [Compound 101] | 3 to 30 | > 60
Cc1cccc(C)c1-c1cc2nc(n1)NS(=O)(=O)c1cccc(c1)NC(=O)c1cc(ccc1NC1CCCCC1N)O2 (stereo not shown) [Compound 103] | 1 to 3 | > 60
CNCCN(C)c1ccc2cc1C(=O)Nc1cccc(c1)S(=O)(=O)Nc1nc(cc(-c3c(C)cccc3C)n1)O2 [Compound 104] | 3 to 30 | 30 to 60
Cc1cccc(C)c1-c1cc2nc(n1)NS(=O)(=O)c1cccc(c1)NC(=O)c1cc(ccc1NCCN)O2 [Compound 105] | 1 to 3 | > 60
Cc1cccc(C)c1-c1cc2nc(n1)NS(=O)(=O)c1cccc(c1)NC(=O)c1cc(ccc1N1CCNCC1)O2 [Compound 106] | 3 to 30 | > 60
Cc1ccccc1-c1cc2nc(n1)NS(=O)(=O)c1cccc(c1)N(C)C(=O)c1ccc(cc1)O2 [Compound 113] |  | < 30
Cc1ccccc1-c1cc2nc(n1)NS(=O)(=O)c1cccc(c1)N(C)C(=O)c1cccc(c1)O2 [Compound 115] | 3 to 30 | > 60
Cc1cccc(C)c1-c1cc2nc(n1)NS(=O)(=O)c1cccc(c1)NC(=O)c1cccc(c1Cl)O2 [Compound 116] | < 1 | > 60

The remaining lines, values ahead:

EC50 [µM] | Emax [%] | SMILES
< 1 | > 60 | CC1(C)CCCCC1c1cc2nc(n1)NS(=O)(=O)c1cccc(c1)NC(=O)c1cccc(c1)O2 (stereo not shown) [Compound 75, 5-(2,2-Dimethylcyclohexyl)-9,9-dioxo-2-oxa-9λ^6-thia-6,8,15,23-tetraazatetracyclo[15.3.1.13,7.110,14]tricosa-1(20),3,5,7(23),10(22),11,13,17(21),18-nonaen-16-one]
1 to 3 | > 60 | O=C1Nc2cccc(c2)S(=O)(=O)Nc2nc(cc(-c3ccccc3)n2)Oc2cccc1c2 [Compound 82]
3 to 30 | > 60 | Nc1ccccc1-c1cc2nc(n1)NS(=O)(=O)c1cccc(c1)NC(=O)c1cccc(c1)O2 [Compound 83]
3 to 30 | > 60 | O=C1Nc2cccc(c2)S(=O)(=O)Nc2nc(cc(-c3ccccc3O)n2)Oc2cccc1c2 [Compound 84]
 | < 30 | Cc1nn(C)c(C)c1-c1cc2nc(n1)NS(=O)(=O)c1cccc(c1)NC(=O)c1cccc(c1)O2 [Compound 85]
3 to 30 | > 60 | O=C1Nc2cccc(c2)S(=O)(=O)Nc2nc(cc(-c3ccco3)n2)Oc2cccc1c2 [Compound 86]
1 to 3 | > 60 | COc1ccccc1-c1cc2nc(n1)NS(=O)(=O)c1cccc(c1)NC(=O)c1cccc(c1)O2 [Compound 87]
1 to 3 | 30 to 60 | Cc1cccc(C)c1-c1cc2nc(n1)NS(=O)(=O)c1cccc(c1)NC(=O)c1cccc(c1)CCO2 [Compound 94]
 | 30 to 60 | CNC1CCCCC1N(C)c1ccc2cc1C(=O)Nc1cccc(c1)S(=O)(=O)Nc1nc(cc(-c3c(C)cccc3C)n1)O2 (stereo not shown) [Compound 102]
